Assay [1] deals with Tyrosine-protein kinase Fyn (Homo sapiens) (UniProt P06241). Kind of assay: Selectivity interaction (Kinase screening (Upstate/Millipore)) EUB0000604a FYN.
Assay [2] has as its target Mitogen-activated protein kinase 14 (Homo sapiens, UniProt Q16539). Kind of assay: Selectivity interaction (Radiometric kinase assay (using 10 uM ATP)) EUB0000601a MAPK14.
The target of assay [3] is Phosphatidylinositol 4-kinase beta (Homo sapiens, UniProt Q9UBF8). Description: Selectivity interaction (ActivX KiNativ screen (kinase selectivity in THP-1 cell lysates)) EUB0000639a PI4KB. The format is subcellular. Conditions: lysate, at 0.2 µM.
Sequence of Phosphatidylinositol 4-kinase beta (Q9UBF8 2-816 limits assumed): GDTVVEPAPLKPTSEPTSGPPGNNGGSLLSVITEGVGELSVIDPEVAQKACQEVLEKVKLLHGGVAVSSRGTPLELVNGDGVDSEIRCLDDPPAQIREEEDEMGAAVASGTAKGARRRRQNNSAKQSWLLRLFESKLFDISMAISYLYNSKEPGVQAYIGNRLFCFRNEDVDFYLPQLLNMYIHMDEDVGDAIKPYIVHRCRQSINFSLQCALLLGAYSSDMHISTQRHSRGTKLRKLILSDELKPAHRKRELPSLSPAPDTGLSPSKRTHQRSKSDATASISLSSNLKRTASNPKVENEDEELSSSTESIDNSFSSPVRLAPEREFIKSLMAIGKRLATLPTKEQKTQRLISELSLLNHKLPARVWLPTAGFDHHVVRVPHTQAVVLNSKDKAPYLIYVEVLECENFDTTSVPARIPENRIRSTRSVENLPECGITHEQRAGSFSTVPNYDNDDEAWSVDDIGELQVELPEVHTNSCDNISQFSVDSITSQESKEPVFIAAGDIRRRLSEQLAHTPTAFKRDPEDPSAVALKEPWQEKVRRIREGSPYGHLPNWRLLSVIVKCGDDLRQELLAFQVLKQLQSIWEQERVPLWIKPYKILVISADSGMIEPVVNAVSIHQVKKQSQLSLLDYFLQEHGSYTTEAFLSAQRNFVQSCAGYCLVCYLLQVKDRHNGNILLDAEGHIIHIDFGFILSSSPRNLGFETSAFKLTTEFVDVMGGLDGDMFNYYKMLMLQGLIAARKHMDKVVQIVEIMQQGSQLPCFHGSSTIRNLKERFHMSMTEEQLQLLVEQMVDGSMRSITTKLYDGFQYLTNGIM
Assay [4] concerns the target T1, Histone-lysine N-methyltransferase NSD3 (Homo sapiens) (UniProt Q9BZ95).
T1 sequence (whole entry): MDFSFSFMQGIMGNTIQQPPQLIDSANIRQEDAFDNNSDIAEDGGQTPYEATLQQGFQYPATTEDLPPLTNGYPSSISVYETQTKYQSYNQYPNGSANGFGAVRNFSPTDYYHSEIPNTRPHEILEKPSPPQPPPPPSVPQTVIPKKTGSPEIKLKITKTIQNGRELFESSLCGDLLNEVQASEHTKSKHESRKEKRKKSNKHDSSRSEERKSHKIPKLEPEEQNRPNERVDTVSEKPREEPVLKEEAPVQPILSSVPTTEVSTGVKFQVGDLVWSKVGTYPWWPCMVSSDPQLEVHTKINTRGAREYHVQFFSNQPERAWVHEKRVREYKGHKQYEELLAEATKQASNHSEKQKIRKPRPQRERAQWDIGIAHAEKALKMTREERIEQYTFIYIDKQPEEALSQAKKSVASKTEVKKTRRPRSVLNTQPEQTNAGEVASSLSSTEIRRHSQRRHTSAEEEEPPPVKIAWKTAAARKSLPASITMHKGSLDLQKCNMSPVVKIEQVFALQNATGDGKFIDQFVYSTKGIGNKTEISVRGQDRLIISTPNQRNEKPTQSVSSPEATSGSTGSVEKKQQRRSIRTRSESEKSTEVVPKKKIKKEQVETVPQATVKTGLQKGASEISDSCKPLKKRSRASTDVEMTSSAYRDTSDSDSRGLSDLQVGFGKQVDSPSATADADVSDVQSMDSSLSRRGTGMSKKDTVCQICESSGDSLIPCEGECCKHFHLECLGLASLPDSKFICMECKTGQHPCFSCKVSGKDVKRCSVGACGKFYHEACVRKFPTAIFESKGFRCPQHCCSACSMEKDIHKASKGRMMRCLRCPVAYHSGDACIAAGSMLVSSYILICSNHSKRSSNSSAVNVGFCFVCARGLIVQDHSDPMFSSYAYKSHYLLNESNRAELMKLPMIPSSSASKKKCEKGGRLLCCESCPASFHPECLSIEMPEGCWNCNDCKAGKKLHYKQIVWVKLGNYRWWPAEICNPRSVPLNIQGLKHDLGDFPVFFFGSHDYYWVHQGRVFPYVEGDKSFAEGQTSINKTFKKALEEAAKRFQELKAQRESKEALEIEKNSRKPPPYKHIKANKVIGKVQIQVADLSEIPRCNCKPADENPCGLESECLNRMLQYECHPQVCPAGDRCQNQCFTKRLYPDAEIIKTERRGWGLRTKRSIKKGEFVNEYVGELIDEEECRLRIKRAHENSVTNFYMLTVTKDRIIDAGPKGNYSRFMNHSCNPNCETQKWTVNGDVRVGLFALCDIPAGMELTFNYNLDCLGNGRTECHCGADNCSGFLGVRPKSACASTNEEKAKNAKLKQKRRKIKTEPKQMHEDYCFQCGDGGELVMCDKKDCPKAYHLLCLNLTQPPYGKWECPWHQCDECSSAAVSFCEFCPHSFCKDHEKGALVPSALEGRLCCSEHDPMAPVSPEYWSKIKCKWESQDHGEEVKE
Conditions: at 1 µM.

Assay [5] concerns the target T2, Serine/threonine-protein kinase RIO3 (Homo sapiens) (UniProt O14730).
T2 sequence (whole entry): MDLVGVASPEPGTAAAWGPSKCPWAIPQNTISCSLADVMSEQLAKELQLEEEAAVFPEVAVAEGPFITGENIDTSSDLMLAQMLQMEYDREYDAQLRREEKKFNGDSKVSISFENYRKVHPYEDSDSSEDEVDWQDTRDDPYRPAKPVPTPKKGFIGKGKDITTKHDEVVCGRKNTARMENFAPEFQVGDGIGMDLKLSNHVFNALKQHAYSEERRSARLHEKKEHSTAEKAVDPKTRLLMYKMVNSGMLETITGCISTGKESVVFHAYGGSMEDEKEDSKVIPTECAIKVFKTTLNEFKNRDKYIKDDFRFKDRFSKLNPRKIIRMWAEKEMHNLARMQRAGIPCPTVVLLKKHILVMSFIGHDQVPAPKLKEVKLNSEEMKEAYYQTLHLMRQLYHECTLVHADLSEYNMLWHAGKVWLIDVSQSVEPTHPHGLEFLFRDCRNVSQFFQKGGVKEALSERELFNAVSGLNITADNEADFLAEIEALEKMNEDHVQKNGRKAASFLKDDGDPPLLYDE
Kind of assay: Selectivity interaction (KinomeScan (DiscoverX)) EUB0000045b RIOK3.

The target in assay [6] is T3, Activin receptor type-1B (Homo sapiens) (UniProt P36896).
T3 sequence (whole entry): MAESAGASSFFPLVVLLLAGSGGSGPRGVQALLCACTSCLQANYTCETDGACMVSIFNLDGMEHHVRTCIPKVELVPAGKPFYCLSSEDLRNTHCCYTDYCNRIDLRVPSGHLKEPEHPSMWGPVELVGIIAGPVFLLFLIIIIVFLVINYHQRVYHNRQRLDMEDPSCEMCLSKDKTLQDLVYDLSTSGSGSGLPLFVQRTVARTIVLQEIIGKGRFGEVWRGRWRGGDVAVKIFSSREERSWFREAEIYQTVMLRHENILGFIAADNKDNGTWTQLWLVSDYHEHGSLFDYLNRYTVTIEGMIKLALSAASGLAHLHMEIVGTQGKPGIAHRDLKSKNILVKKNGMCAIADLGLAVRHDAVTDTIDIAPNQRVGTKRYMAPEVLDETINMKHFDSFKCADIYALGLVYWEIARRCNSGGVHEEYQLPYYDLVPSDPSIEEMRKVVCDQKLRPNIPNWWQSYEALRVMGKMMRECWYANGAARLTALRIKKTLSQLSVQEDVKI
Kind of assay: Selectivity interaction (KinomeScan (DiscoverX)) EUB0001049a ACVR1B. Conditions: at 1 µM.

Assay [7] concerns the target Serine/threonine-protein kinase Nek7 (Homo sapiens) (UniProt Q8TDX7). Kind of assay: Selectivity interaction (KinomeScan (DiscoverX)) EUB0001079a NEK7. Conditions: at 1 µM.

Sequence of Mitogen-activated protein kinase 14 (Q16539 whole entry): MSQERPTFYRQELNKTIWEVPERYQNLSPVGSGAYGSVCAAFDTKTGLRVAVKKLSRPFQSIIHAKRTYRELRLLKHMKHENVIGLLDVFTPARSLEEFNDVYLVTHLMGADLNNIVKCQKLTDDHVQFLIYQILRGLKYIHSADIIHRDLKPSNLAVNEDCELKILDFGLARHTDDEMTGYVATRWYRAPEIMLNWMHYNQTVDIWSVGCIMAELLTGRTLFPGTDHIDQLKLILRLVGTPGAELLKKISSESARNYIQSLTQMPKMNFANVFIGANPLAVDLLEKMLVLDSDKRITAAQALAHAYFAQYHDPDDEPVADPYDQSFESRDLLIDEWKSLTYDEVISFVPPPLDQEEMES
Sequence of Serine/threonine-protein kinase Nek7 (Homo sapiens) (Q8TDX7 whole entry, looked up): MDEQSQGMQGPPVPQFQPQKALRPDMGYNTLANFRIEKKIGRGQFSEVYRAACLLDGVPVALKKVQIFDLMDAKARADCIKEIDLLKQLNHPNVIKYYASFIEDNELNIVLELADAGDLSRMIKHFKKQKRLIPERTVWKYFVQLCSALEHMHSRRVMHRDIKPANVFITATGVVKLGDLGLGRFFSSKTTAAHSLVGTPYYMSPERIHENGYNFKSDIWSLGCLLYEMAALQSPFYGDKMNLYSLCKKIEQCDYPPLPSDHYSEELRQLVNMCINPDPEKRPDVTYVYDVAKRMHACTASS
Sequence of Tyrosine-protein kinase Fyn (Homo sapiens) (P06241 2-537 limits assumed): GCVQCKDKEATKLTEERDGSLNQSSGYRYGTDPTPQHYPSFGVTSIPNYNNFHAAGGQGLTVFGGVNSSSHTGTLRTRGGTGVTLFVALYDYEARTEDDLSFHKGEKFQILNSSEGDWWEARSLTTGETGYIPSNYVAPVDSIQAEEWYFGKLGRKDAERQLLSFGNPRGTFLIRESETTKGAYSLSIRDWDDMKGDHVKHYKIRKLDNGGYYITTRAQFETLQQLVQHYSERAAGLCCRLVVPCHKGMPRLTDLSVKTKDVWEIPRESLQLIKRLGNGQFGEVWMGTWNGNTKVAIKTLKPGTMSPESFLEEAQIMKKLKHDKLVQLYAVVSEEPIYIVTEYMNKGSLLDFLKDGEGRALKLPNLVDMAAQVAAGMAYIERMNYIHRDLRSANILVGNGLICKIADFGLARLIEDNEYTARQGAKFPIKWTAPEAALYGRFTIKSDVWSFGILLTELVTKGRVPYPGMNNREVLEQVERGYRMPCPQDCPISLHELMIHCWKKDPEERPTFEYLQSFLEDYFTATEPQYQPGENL

`Cc1cnc(Nc2ccc(F)cc2Cl)nc1-c1c[nH]c(C(=O)N[C@H](CO)c2cccc(Cl)c2)c1`: the % of inhibition in assay [1] came to 11%. With `CCc1cc(Nc2nccc(-c3c(-c4ccc(OC)c(C(=O)Nc5c(F)cccc5F)c4)nc4ccccn34)n2)c(OC)cc1N1CCC(N2CCN(S(C)(=O)=O)CC2)CC1`, the IC50 in assay [2] is more than 11 µM. `CC[C@@H]1[C@H](F)C(=O)N[C@@H]1COc1nccc2cc(C(N)=O)c(OC)cc12` [ZIMLOVISERTIB]: in assay [3], the % of inhibition is -16.4%. On to `CNCCN1CCC(c2cc(CN(C)C(=O)c3cccc(Oc4ccccc4)c3)ccn2)CC1`, for which the % activity in assay [4] was more than 90%. As to `C=CC(=O)Nc1cc(-n2c(=O)ccc3cnc4ccc(-c5ccc(NS(C)(=O)=O)cc5)cc4c32)ccc1C`, the % of control in assay [5] (at 1 µM) came to 55%; in assay [5] (at 10 µM), 60%. Consider `COc1cc(Nc2nc(C)cc(-c3cnn4nc(OC)ccc34)n2)cc(C(F)(F)F)c1`, for which the % of control in assay [6] is 100%.

Take `Nc1cnc(N2CCc3cc(S(=O)(=O)Nc4c(F)cc(Cl)cc4F)cc(N4CCCC4=O)c32)nc1` [TP-020n]: in assay [7], the % of control was 96%.

The values are drawn from ChEMBL document CHEMBL5465560, “Selectivity Literature for EUbOPEN Chemogenomic Library” (2024).
